Source: patent US20050043319A1, “Molecular target of neurotoxicity” (EXONHIT THERAPEUTICS SA, priority 2001, published 2005)
Read-outs that look alike come from different tables or passages of the source.

Assays:
cortical neurons = test: Excitotoxicity protection in primary cortical cell cultures (MTT test); assay type: cell-based, rat; details: 6 hour incubation
Method: Sixteen-day-old embryos from Wistar rats were removed and the cortex dissected. […] After four days of culture, half of the medium was replaced by minimum essential medium supplemented with 5% horse serum and 2 mM glutamine. On the same day, 10 μM 5-fluoro-2-deoxyuridine, an antimitotic agent, was added. After 7 and 11 days of culture, half of the medium was replaced by conditioned medium composed of MEM supplemented with 5% horse serum and 2 mM glutamine; this medium was passed overnight on a layer of cortical astrocytes before use.
Toxicity was measured with an MTT test.

rat brain granular cells = details: for protection of brain granular cells: 6 hour incubation, MTT; for protective effect on neuron survival: neurons cotreated with PDE4 inhibitor, both excitotoxicity inducers (NMDA/serine and kainate), FIGS. 2 to 10
[1] = system: Amyotrophic Lateral Sclerosis (ALS); details: ALS patients; cited from earlier work
[2] = NMDA/serine treatment (20 μM NMDA + 10 μM D-serine)
[3] = kainate-induced toxicity (50 μM kainate)
[4] = NMDA/serine treatment (100 μM NMDA + 10 μM D-serine)

Compound	protective effect on cortical neurons (cortical neurons; [2]) [%]	protective effect on cortical neurons (cortical neurons; [3]) [%]	protection of brain granular cells (rat brain granular cells; [4]) [%]	protection of brain granular cells (rat brain granular cells; [3]) [%]	protective effect on neuron survival (rat brain granular cells)	improvement in the measures of muscular strength [1]
CC(=O)CCCCn1c(=O)c2c(ncn2C)n(C)c1=O [pentoxifylline]	50	66	43	33	dose-dependent protective effect	
CCOC(=O)c1cnc2c(cnn2CC)c1NN=C(C)C [etazolate]	33	25	60	57	dose-dependent protective effect	
Nc1nc2ccc(OC(F)(F)F)cc2s1 [Riluzole]						does not provide improvement
